From the NIST ThermoML archive (doi:10.1016/j.jct.2005.10.019)

Legend:
[1] = excess molar enthalpy (molar enthalpy of mixing); xn = mol fraction of the nth substance listed; conditions: 298.15 K, 101 kPa, Liquid
[2] = 298.15 K; 101.33 kPa; Liquid

C[C@@H]1COC(=O)O1 [(R)-4-methyl-1,3-dioxolan-2-one] + C[C@H]1COC(=O)O1
[1]
Conditions	excess molar enthalpy [kJ/mol]
x2 = 0.02206	-0.000706
x2 = 0.04317	-0.00137
x2 = 0.06338	-0.00201
x2 = 0.06919	-0.00192
x2 = 0.08276	-0.00258
x2 = 0.1014	-0.00307
x2 = 0.1192	-0.00355
x2 = 0.1294	-0.0036
x2 = 0.1364	-0.00399
x2 = 0.1529	-0.00439
x2 = 0.1688	-0.00476
x2 = 0.1823	-0.0048
x2 = 0.1841	-0.00509
x2 = 0.1988	-0.00541
x2 = 0.213	-0.00569
x2 = 0.2268	-0.00595
x2 = 0.2292	-0.00597
x2 = 0.2709	-0.0068
x2 = 0.3084	-0.00709
x2 = 0.3422	-0.00743
x2 = 0.3673	-0.00776
x2 = 0.3729	-0.0078
x2 = 0.3988	-0.008
x2 = 0.4008	-0.00799
x2 = 0.4264	-0.00819
x2 = 0.4363	-0.00825
x2 = 0.4366	-0.00829
x2 = 0.4627	-0.00851
x2 = 0.4815	-0.0084
x2 = 0.4921	-0.00856
x2 = 0.5254	-0.00856
x2 = 0.5372	-0.00832
x2 = 0.5551	-0.00837
x2 = 0.5959	-0.00823
x2 = 0.6186	-0.00814
x2 = 0.6431	-0.00802
x2 = 0.6596	-0.0077
x2 = 0.6697	-0.00771
x2 = 0.6985	-0.00735
x2 = 0.699	-0.0071
x2 = 0.7209	-0.00694
x2 = 0.73	-0.00679
x2 = 0.7641	-0.00612
x2 = 0.7644	-0.00632
x2 = 0.7782	-0.00587
x2 = 0.7929	-0.00558
x2 = 0.7949	-0.00558
x2 = 0.7997	-0.00541
x2 = 0.8022	-0.00553
x2 = 0.8081	-0.00527
x2 = 0.8122	-0.0052
x2 = 0.8228	-0.00475
x2 = 0.8239	-0.00494
x2 = 0.8252	-0.00494
x2 = 0.8385	-0.00465
x2 = 0.8404	-0.00458
x2 = 0.8439	-0.00456
x2 = 0.8522	-0.00434
x2 = 0.8575	-0.00417
x2 = 0.8665	-0.00394
x2 = 0.8753	-0.00372
x2 = 0.8812	-0.00359
x2 = 0.8857	-0.00349
x2 = 0.8902	-0.00335
x2 = 0.8939	-0.00323
x2 = 0.8964	-0.00319
x2 = 0.9121	-0.00276
x2 = 0.9133	-0.0027
x2 = 0.9285	-0.00231
x2 = 0.9335	-0.0021
x2 = 0.9419	-0.00184
x2 = 0.9454	-0.00178
x2 = 0.9547	-0.00146
x2 = 0.9629	-0.00123
x2 = 0.9768	-0.000769
x2 = 0.9811	-0.000633

C[C@@H](O)c1ccccc1 [(R)-(+)-1-phenylethanol]
Conditions	mass density [kg/m3]
[2]	1012.4

C[C@@H](NCc1ccccc1)c1ccccc1 [(R)-(+)-N-benzyl-1-phenylethylamine]
Conditions	mass density [kg/m3]
[2]	1007.7

C[C@@H](N)c1ccccc1 [(R)-(+)-α-methylbenzylamine]
Conditions	mass density [kg/m3]
[2]	965.38

C[C@H]1COC(=O)O1 [(S)-4-methyl-1,3-dioxolan-2-one]
Conditions	mass density [kg/m3]
[2]	1199.5

C[C@H](O)c1ccccc1 [(S)-(-)-1-phenylethanol]
Conditions	mass density [kg/m3]
[2]	1012.3

C[C@H](O)c1ccccc1 [(S)-(-)-1-phenylethanol] + C[C@@H](O)c1ccccc1
[1]
Conditions	excess molar enthalpy [kJ/mol]
x1 = 0.07558	0.00316
x1 = 0.09137	0.00379
x1 = 0.1405	0.00532
x1 = 0.1675	0.00626
x1 = 0.197	0.00701
x1 = 0.2318	0.0077
x1 = 0.2464	0.00818
x1 = 0.2869	0.00892
x1 = 0.2902	0.00904
x1 = 0.3291	0.00964
x1 = 0.3346	0.00964
x1 = 0.364	0.0101
x1 = 0.3763	0.0101
x1 = 0.3954	0.0103
x1 = 0.4131	0.0103
x1 = 0.4239	0.0105
x1 = 0.4458	0.0105
x1 = 0.4498	0.0106
x1 = 0.4751	0.0105
x1 = 0.4753	0.0104
x1 = 0.497	0.0106
x1 = 0.5014	0.0106
x1 = 0.5208	0.0106
x1 = 0.5252	0.0105
x1 = 0.5469	0.0105
x1 = 0.547	0.0106
x1 = 0.5668	0.0105
x1 = 0.576	0.0105
x1 = 0.5993	0.0105
x1 = 0.6083	0.0103
x1 = 0.6357	0.0101
x1 = 0.6443	0.00996
x1 = 0.6768	0.00959
x1 = 0.6849	0.00949
x1 = 0.7235	0.00897
x1 = 0.731	0.00874
x1 = 0.7773	0.00796
x1 = 0.7837	0.00766
x1 = 0.8396	0.00601
x1 = 0.8446	0.00622
x1 = 0.9128	0.00359
x1 = 0.9158	0.0035

C[C@H](N)c1ccccc1 [(S)-(-)-αmethylbenzylamine]
Conditions	mass density [kg/m3]
[2]	965.49

C[C@H](N)c1ccccc1 [(S)-(-)-αmethylbenzylamine] + C[C@@H](N)c1ccccc1
[1]
Conditions	excess molar enthalpy [kJ/mol]
x1 = 0.0173	0.000616
x1 = 0.03401	0.00121
x1 = 0.05015	0.00175
x1 = 0.06577	0.00225
x1 = 0.08089	0.00268
x1 = 0.09552	0.00313
x1 = 0.1097	0.00355
x1 = 0.1234	0.00393
x1 = 0.1368	0.00428
x1 = 0.1408	0.00448
x1 = 0.1497	0.00462
x1 = 0.1622	0.00497
x1 = 0.1744	0.00528
x1 = 0.1862	0.00554
x1 = 0.2469	0.00682
x1 = 0.3297	0.00815
x1 = 0.384	0.00869
x1 = 0.4161	0.0089
x1 = 0.4539	0.00903
x1 = 0.555	0.00903
x1 = 0.6244	0.00868
x1 = 0.7138	0.00757
x1 = 0.8027	0.00551
x1 = 0.815	0.00525
x1 = 0.841	0.00462
x1 = 0.8546	0.00427
x1 = 0.8686	0.00391
x1 = 0.8831	0.00351
x1 = 0.8981	0.0031
x1 = 0.9136	0.00264
x1 = 0.9297	0.0022
x1 = 0.9463	0.00171
x1 = 0.9636	0.00114
x1 = 0.9814	0.000486

C[C@H](NCc1ccccc1)c1ccccc1 [(S)-N-benzyl-1-phenylethylamine]
Conditions	mass density [kg/m3]
[2]	1007.9

C[C@H](NCc1ccccc1)c1ccccc1 [(S)-N-benzyl-1-phenylethylamine] + C[C@@H](NCc1ccccc1)c1ccccc1
[1]
Conditions	excess molar enthalpy [kJ/mol]
x1 = 0.05697	-0.000895
x1 = 0.09481	-0.00138
x1 = 0.1905	-0.00255
x1 = 0.2961	-0.00344
x1 = 0.4009	-0.00402
x1 = 0.5331	-0.00426
x1 = 0.5712	-0.00421
x1 = 0.6151	-0.00402
x1 = 0.7271	-0.00348
x1 = 0.7998	-0.00287
x1 = 0.8805	-0.00184
x1 = 0.9576	-0.000777

CCCC(=O)OC[C@H]1CO1 [R(-)-2,3-epoxypropyl butanoate]
Conditions	mass density [kg/m3]
[2]	1036.3

CCCC(=O)OC[C@@H]1CO1 [S-(-)-glycidyl butyrate]
Conditions	mass density [kg/m3]
[2]	1029.7
